Results on 2 molecules are retold here after patent US20090209507A1, “15-O-Desmethylmacbecin Derivatives and Their Use in the Treatment of Cancer or B-Cell Malignancies” (priority 2006, published 2009).

The test system of one assay is MEXF 394NL. In words: monolayer proliferation assay (modified propidium iodide assay), MEXF 394NL. Format: cell-based, human. The conditions noted are these: MEXF 394NL (Melanoma), 4 days continuous exposure. On the procedure:
(§1) In vitro evaluation of compounds for anticancer activity in a panel of human tumour cell lines in a monolayer proliferation assay was carried out at the Oncotest Testing Facility, Institute for Experimental Oncology, Oncotest GmbH, Freiburg.
(§2) The Oncotest cell lines were established from human tumor xenografts as described by Roth et al., (1999). The origin of the donor xenografts was described by Fiebig et al., (1999). Other cell lines are either obtained from the NCI (DU145, MCF-7) or purchased from DSMZ, Braunschweig, Germany.
(§3) All cell lines, unless otherwise specified, were grown at 37° C. in a humidified atmosphere (95% air, 5% CO2) in a ‘ready-mix’ medium containing RPMI 1640 medium, 10% fetal calf serum, and 0.1 mg/mL gentamicin (PAA, Cölbe, Germany).
(§4) A modified propidium iodide assay was used to assess the effects of the test compound(s) on the growth of the human tumour cell lines (Dengler et al., (1995)).
(§5) Briefly, cells were harvested from exponential phase cultures by trypsinization, counted and plated in 96 well flat-bottomed microtitre plates at a cell density dependent on the cell line (5-10.000 viable cells/well). […] After thawing the plates, fluorescence was measured using the Cytofluor 4000 microplate reader (excitation 530 nm, emission 620 nm), giving a direct relationship to the total number of viable cells.
(§6) Growth inhibition is expressed as treated/control×100 (% T/C). […]

The next assay concerns CXF HT29. In words: monolayer proliferation assay (modified propidium iodide assay), CXF HT29. The conditions noted are these: CXF HT29 (Colon), 4 days continuous exposure. The class given is cell-based, human. On the procedure: as §1, §2, §3, §4, §5, §6
The subject of another assay is DU145. In words: monolayer proliferation assay (modified propidium iodide assay), DU145. As to conditions: DU145 (Prostate - PTEN positive), 4 days continuous exposure. The class given is cell-based, human. The protocol:
as §1, §2, §3, §4, §5, §6

The subject of the next assay is CNXF 498NL. The assay is described as follows: monolayer proliferation assay (modified propidium iodide assay), CNXF 498NL. The class given is cell-based, human. As to conditions: CNXF 498NL (CNS), 4 days continuous exposure. The protocol:
as §1, §2, §3, §4, §5, §6

The next assay has as its system MCF-7. The assay is described as follows: monolayer proliferation assay (modified propidium iodide assay), MCF-7. Format: cell-based, human. The conditions noted are these: MCF-7 (Breast), 4 days continuous exposure. The protocol:
as §1, §2, §3, §4, §5, §6

A further assay relates to LXF 1121L. In words: monolayer proliferation assay (modified propidium iodide assay), LXF 1121L. As to conditions: LXF 1121L (Lung, large cell ca), 4 days continuous exposure. The class given is cell-based, human. The protocol:
as §1, §2, §3, §4, §5, §6

A further assay relates to Reverse transcriptase. The conditions noted are these: cited from earlier work.
Assay [1] addresses terminal deoxynucleotidyl transferase (Homo sapiens, UniProt P04053). As to conditions: cited from earlier work.

Chain of terminal deoxynucleotidyl transferase (P04053 whole entry, species assumed): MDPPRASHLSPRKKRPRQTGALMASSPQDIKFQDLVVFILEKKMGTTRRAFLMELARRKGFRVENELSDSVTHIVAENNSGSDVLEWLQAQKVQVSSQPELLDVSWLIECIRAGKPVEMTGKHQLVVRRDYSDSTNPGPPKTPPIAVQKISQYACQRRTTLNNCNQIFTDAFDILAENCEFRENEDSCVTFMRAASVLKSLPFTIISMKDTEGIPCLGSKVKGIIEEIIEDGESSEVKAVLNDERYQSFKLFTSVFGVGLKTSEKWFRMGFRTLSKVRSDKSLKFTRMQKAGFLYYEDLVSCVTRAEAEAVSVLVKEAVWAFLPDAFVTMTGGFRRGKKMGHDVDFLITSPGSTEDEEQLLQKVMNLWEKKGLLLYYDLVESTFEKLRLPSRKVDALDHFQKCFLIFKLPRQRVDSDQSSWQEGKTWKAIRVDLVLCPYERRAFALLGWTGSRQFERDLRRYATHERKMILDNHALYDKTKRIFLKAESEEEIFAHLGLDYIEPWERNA

As for `CO[C@H]1[C@@H](OC)C[C@H](C)[C@@H](O)C2=CC(=O)C=C(NC(=O)/C(C)=C/C=C\[C@H](C)[C@@H](OC(N)=O)/C(C)=C/[C@@H]1C)C2=O` [Compound 14, 15-O-desmethylmacbecin], the “Test/Control (%) at drug concentration” value in the assay on MEXF 394NL (1 μg/mL) is 17%; in the assay with MEXF 394NL (10 μg/mL), 2.3%; with CXF HT29 (1 μg/mL) it was 58.3%; in the assay with CXF HT29 (10 μg/mL), 7.7%; in the assay with DU145 (1 μg/mL), 49.7%; with DU145 (10 μg/mL), 6%. For the same molecule, the “Test/Control (%) at drug concentration” value worked out at 49.3% in the assay with CNXF 498NL (1 μg/mL); 4.7% in the assay with CNXF 498NL (10 μg/mL); 65.3% with MCF-7 (1 μg/mL); 15.3% in the assay with MCF-7 (10 μg/mL); 63% in the assay with LXF 1121L (1 μg/mL); 6% in the assay on LXF 1121L (10 μg/mL).

With `CO[C@H]1[C@@H](OC)C[C@H](C)[C@@H](OC)C2=CC(=O)C=C(NC(=O)/C(C)=C/C=C\[C@H](C)[C@@H](OC(N)=O)/C(C)=C/[C@@H]1C)C2=O` [Macbecin, macbecin], the “Reverse transcriptase activity inhibition” value in the assay on Reverse transcriptase is “not inhibited”. Further, in assay [1], the “terminal deoxynucleotidyl transferase activity inhibition” value is reported as “not inhibited”.
